Columns and labels:
K562 [1] = experiment: Cytotoxicity against Homo sapiens (human) K562 cells at 50 uM after 24 hr by MTT assay; type: functional
K562 [2] = experiment: Cytotoxicity against Homo sapiens (human) K562 cells assessed as inhibition of cell proliferation after 24 hr by MTT assay; type: functional, cell-based; conditions: K562, 24 h
MCF7 [3] = experiment: Cytotoxicity against Homo sapiens (human) MCF7 cells at 50 uM after 24 hr by MTT assay; type: functional
MCF7 [4] = experiment: cells; conditions: Homo sapiens, MCF7, 24 h
Description: Cytotoxicity against Homo sapiens (human) MCF7 cells assessed as inhibition of cell proliferation after 24 hr by MTT assay

Q: Which results are given for Clc1ccc(C2=NOC(c3ccc(Cl)cc3)N2c2ccc(Cl)cc2)cc1 (centres undefined)?
A: Activity (K562 [1]): >50%; IC50 (K562 [2]): 51.2 µM; Activity (MCF7 [3]): >50%; IC50 (MCF7 [4]): 22.6 µM

Q: Clc1ccc(C2=NOC(c3ccc(Cl)cc3)N2c2ccccc2)cc1 (centres undefined) was tested. Which Activity (K562 [1]) did it give?
A: >50%

Q: And the IC50 (K562 [2])?
A: 22.2 µM

Q: And the Activity (MCF7 [3])?
A: >50%

Q: And the IC50 (MCF7 [4])?
A: 10.1 µM

Q: With COc1cccc2c1C(=O)c1c(O)c3c(c(O)c1C2=O)C[C@@](O)(C(=O)CO)C[C@@H]3O[C@H]1C[C@H](N)[C@H](O)[C@H](C)O1 [DOXORUBICIN] as the compound, how does the IC50 (K562 [2]) read?
A: 4.49 µM

Q: And the IC50 (MCF7 [4])?
A: > 100 µM

Q: How did the Activity (K562 [1]) turn out when Clc1ccc(C2=NOC(c3ccccc3)N2c2ccccc2)cc1 (centres undefined) was run?
A: >50%

Q: What about the IC50 (K562 [2]) of the same compound?
A: 97 µM

Q: What about the Activity (MCF7 [3]) of the same compound?
A: >50%

Q: And the IC50 (MCF7 [4])?
A: 23.7 µM

Q: Which results are given for Fc1ccc(C2ON=C(c3ccc(Cl)cc3)N2c2ccccc2)cc1 (centres undefined)?
A: Activity (K562 [1]): >50%; IC50 (K562 [2]): 21.7 µM; Activity (MCF7 [3]): >50%; IC50 (MCF7 [4]): 6.5 µM

Q: For CC(=O)O[C@H]1C(=O)[C@@]2(C)[C@H]([C@H](OC(=O)c3ccccc3)[C@]3(O)C[C@H](OC(=O)[C@H](O)[C@@H](NC(=O)c4ccccc4)c4ccccc4)C(C)=C1C3(C)C)[C@]1(OC(C)=O)CO[C@@H]1C[C@@H]2O [PACLITAXEL], which IC50 (K562 [2]) is on record?
A: > 100 µM

From ChEMBL document CHEMBL3046060, “Synthesis, molecular docking study, and anticancer activity of triaryl-1,2,4-oxadiazole” (Med Chem Res, 2013)
